{
  "source": "patent US20140221429A1",
  "about": "“HETEROCYCLIC SCHIFF'S BASES AS NOVEL AND NEW ANTIGLYCATION AGENTS” (priority 2013, published 2014)",
  "target": "T1, bovine serum albumin (BSA-methylglyoxal glycation) (Bos taurus, UniProt P02769)",
  "T1 construct": "purchased Merck Marker Pvt; Ltd. (Germany)",
  "T1 sequence (P02769 25-607)": "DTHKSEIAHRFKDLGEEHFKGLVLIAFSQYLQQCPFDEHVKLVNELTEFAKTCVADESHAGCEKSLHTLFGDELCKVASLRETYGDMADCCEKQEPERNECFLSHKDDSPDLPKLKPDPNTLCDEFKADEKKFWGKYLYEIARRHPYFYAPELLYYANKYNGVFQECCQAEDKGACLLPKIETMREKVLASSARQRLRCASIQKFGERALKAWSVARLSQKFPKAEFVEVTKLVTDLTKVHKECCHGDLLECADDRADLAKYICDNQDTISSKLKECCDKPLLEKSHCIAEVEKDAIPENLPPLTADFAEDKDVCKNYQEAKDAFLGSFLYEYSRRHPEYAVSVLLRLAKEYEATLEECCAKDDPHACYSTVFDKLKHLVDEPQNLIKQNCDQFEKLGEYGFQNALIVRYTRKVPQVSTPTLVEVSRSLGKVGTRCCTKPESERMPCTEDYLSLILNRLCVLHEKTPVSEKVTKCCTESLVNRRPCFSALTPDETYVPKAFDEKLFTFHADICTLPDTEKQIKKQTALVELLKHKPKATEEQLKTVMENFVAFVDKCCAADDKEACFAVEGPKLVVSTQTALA",
  "assay": "in vitro BSA-MG glycation model (antiglycation assay)",
  "assay_type": "biochemical",
  "details": "for inhibition at 1000 µM: read-out: inhibition of protein glycation",
  "procedure": "Bovine Serum Albumin (BSA) was purchased from Merck Marker Pvt. Ltd. (Germany), rutin and methylglyoxal (MG) (40% aqueous solution) were from Sigma Aldrich (Japan), sodium dihydrogen phosphate (NaH2PO4), disodium hydrogen phosphate (Na2HPO4) and sodium azide (NaN3) were purchased from Scharlau Chemie, S. A. (Spain), while dimethyl sulphoxide (DMSO) was purchased from Fischer Scientific (UK).\nThe total reaction volume of the assay was 200 μL, having final concentrations of 10 mg/mL BSA, 14 mM methylglyoxal, and 1 mM test compounds. 10 mg/mL solution of BSA and 14 mM methylglyoxal was prepared in 0.1 M phosphate buffer (pH 7.4), containing sodium azide (NaN3) (30 mM) as antimicrobial agent, while 1 mM solutions of test compounds were prepared in the DMSO. Assay was performed in triplicate. Each reaction mixtures were comprised of 50 μL BSA, 50 μL methylglyoxal, 20 μL test compound and 80 μL phosphate buffer (pH 7.4). The reaction mixture was incubated under aseptic conditions at 37° C. for 9 days.\nAfter completion of nine days of incubation, each sample was examined for the development of specific fluorescence (excitation 330 nm; emission 420 nm) against blank on a microtitre plate reader (SpectraMax M2, Molecular Devices, CA, USA).\nThe percent inhibition of AGE formation by the test sample versus control was calculated by using the following formula:\n% Inhibition=([…]−Fluorescence of test sample/Fluorescence of the control)×100\nThe IC50 (i.e. the concentration of test samples that inhibit the process of glycation to 50%) was determined by monitoring the effect of various concentrations (ranges from 1000-50 μM) of test compounds. The IC50 values were calculated by using EZ-FIT Enzyme Kinetics Program (Perrella Scientific Inc., Amherst, USA). The antiglycation potential of test compounds was compared with rutin, which was used as standard inhibitor.",
  "key": {"[1]": {"details": "Antiglycation Studies IC50 ± SEM, BSA-MG model, 10 mg/mL BSA, 14 mM methylglyoxal, 37° C., 9 days, fluorescence ex 330/em 420 nm"}},
  "note": "“And” between values parts separate entries of the source, which are not always exact repeats. Equal values may be shown once. Read-outs that look alike come from different tables or passages of the source.",
  "data": [
    {"smiles": "O=C(NN=Cc1cccc([N+](=O)[O-])c1)c1ccccc1", "note": "[Compound 1, N′-(3-Nitrobenzylidene)benzohydrazide]", "values": [
      {"measurement": "Antiglycation Studies IC50 ± SEM", "value": "Inactive"},
      {"measurement": "antiglycation activity (in words)", "value": "inactive"},
      {"measurement": "inhibition at 1000 µM", "value": "< 50", "unit": "%"}
    ]},
    {"smiles": "O=C(NN=Cc1ccccc1[N+](=O)[O-])c1ccccc1", "note": "[Compound 2, N′-(2-Nitrobenzylidene)benzohydrazide]", "values": [
      {"measurement": "Antiglycation Studies IC50 ± SEM", "value": "Inactive"},
      {"measurement": "antiglycation activity (in words)", "value": "inactive"},
      {"measurement": "inhibition at 1000 µM", "value": "< 50", "unit": "%"}
    ]},
    {"smiles": "O=C(NN=Cc1ccco1)c1cccs1", "note": "[Compound 3, 2-Thiophenecarboxylic acid, (2-furanylmethylene)hydrazide (9CI)]", "values": [
      {"measurement": "IC50", "setting": "[1]", "value": "520.8 ± 1.8", "unit": "µM"},
      {"measurement": "antiglycation activity (in words)", "setting": "BSA-MG model", "value": "moderate inhibition"}
    ]},
    {"smiles": "Cc1ccc(C=NNC(=O)c2cccs2)o1", "note": "[Compound 4, 2-Thiophencarboxylic acid, [(5-methyl-2-furanyl)methylene] hydrazide (9CI)]", "values": [
      {"measurement": "IC50", "setting": "Antiglycation IC50 (unit printed as μ), BSA-MG model assay", "value": "442.8 ± 0.68", "unit": "µM"},
      {"measurement": "IC50", "setting": "[1]", "value": "442.8 ± 0.68", "unit": "µM"},
      {"measurement": "antiglycation activity (in words)", "setting": "BSA-MG model", "value": "moderate inhibition"}
    ]},
    {"smiles": "C(=NNc1ccccn1)c1ccccn1", "note": "[Compound 5, 1,3-Bis(2′-pyridyl)-1,2-diazapropen-2-ene]", "values": [
      {"measurement": "IC50", "setting": "[1]", "value": "397.2 ± 2.2", "unit": "µM"}
    ]},
    {"smiles": "C(=Nc1ccc(Cc2ccc(N=Cc3ccccn3)cc2)cc1)c1ccccn1", "note": "[Compound 6, Bis[4-(2-pyridylmethyleneamino)phenyl]methane]", "values": [
      {"measurement": "IC50", "setting": "[1]", "value": "862.8 ± 3.3", "unit": "µM"}
    ]},
    {"smiles": "C[C@@H]1O[C@@H](OC[C@H]2O[C@@H](Oc3c(-c4ccc(O)c(O)c4)oc4cc(O)cc(O)c4c3=O)[C@H](O)[C@@H](O)[C@@H]2O)[C@H](O)[C@H](O)[C@H]1O", "note": "[Rutin, reference compound]", "values": [
      {"measurement": "IC50", "setting": "BSA-MG model, 10 mg/mL BSA, 14 mM methylglyoxal, 37° C., 9 days, fluorescence ex 330/em 420 nm, read-out: Antiglycation Studies IC50 ± SEM", "value": "294 µM and 295 µM"}
    ]}
  ]
}
